Paper PMC5512161 (Neuropharmacology, 2017)

How the values were obtained:
Assay in all cases: whole-cell patch clamp
Type in all cases: cell-based
α6β2γ2 GABAA receptor = conditions: EC30 GABA (1 μM), -60 mV, pH 7.3, biphasic effect
α1β2 GABAA receptor [1] = conditions: EC30 GABA, TM2 6' position, -60 mV, pH 7.3
α1β2 GABAA receptor [2] = conditions: EC30 GABA (0.5 μM), -60 mV, pH 7.3
α3β2γ2 GABAA receptor = conditions: inhibition of current by EC30 GABA; -60 mV, pH 7.3, 22-25 °C; called competitive

IC50 (α3β2γ2 GABAA receptor): 14 ± 6.3 µM
SMILES: O=C1Nc2ccc(Cl)cc2[C@@](C#CC2CC2)(C(F)(F)F)O1 [Efavirenz]
% of control end-application current at 30 μM (α6β2γ2 GABAA receptor): 46 ± 6.1%
% of control end-application current at 30 μM (α1β2 GABAA receptor [1]): 95 ± 18%
% of control end-application current at 30 μM (α1β2 GABAA receptor [2]): 1.6 ± 1.7%
